Patent publication US8697385B1, “Protein controlling synthesis of collagen and associated methods” (Florida State University Research Foundation, Inc., priority 2009, dated 2014)

Experiments:
[1] = tested on: nonmuscle myosin filaments; assay: Immunostaining of nonmuscle myosin IIB filaments in lung fibroblasts; assay type: cell-based; details: human lung fibroblasts; ML-7 40 μM 16 h; untreated cells show prominent filaments
Experimental: (§1) ML-7, blebbistatin, cytochalasin B, puromycin, and cycloheximide were purchased from Sigma. ML-7 was used at 40 μM, blebbistatin was used at 100 μM, and cytochalasin B was used at 20 μM. Cells were incubated with the drugs for 16 h before analysis. Puromycin (200 μg/ml) and cycloheximide (100 μg/ml) were added to the cells for 2 h. Human lung fibroblasts have been described previously.16 Scleroderma fibroblasts were purchased from the European Collection of Cell Cultures (cell line BM0070) and derived from the skin of a scleroderma patient. MEFs were derived from knock-in mice in which the 5′SL of the collagen α1(I) gene has been mutated (Parsons et al., submitted). Several independent cell isolates were used throughout the study. All cells were cultured in Dulbecco's modified Eagle's medium supplemented with 10% fetal bovine serum for up to 10 passages. […] [^32P]dCTP was included in the PCR step to label the products, which were resolved on sequencing gels, as described previously.^8,31,49,50 When RNA from polysomal fractions was analyzed, an equal aliquot of each fraction was used. […]
(§2) Protein concentration was estimated by the Bradford assay, with bovine serum albumin as standard.^51 Western blot analyses of cellular proteins were performed using 50 μg of protein. […] The medium was collected, and an aliquot was analyzed directly by Western blot analysis. […]

[2] = tested on: primary scleroderma skin fibroblasts; assay: Western blot analysis of cellular and medium collagen polypeptides, scleroderma fibroblasts; assay type: cell-based, human; details: 16 h, ML-7 40 μM, blebbistatin 100 μM
Experimental: ML-7, blebbistatin, cytochalasin B, puromycin, and cycloheximide were purchased from Sigma. ML-7 was used at 40 μM, blebbistatin was used at 100 μM, and cytochalasin B was used at 20 μM. Cells were incubated with the drugs for 16 h before analysis. Puromycin (200 μg/ml) and cycloheximide (100 μg/ml) were added to the cells for 2 h. Human lung fibroblasts have been described previously.16 Scleroderma fibroblasts were purchased from the European Collection of Cell Cultures (cell line BM0070) and derived from the skin of a scleroderma patient. MEFs were derived from knock-in mice in which the 5′SL of the collagen α1(I) gene has been mutated (Parsons et al., submitted). Several independent cell isolates were used throughout the study. All cells were cultured in Dulbecco's modified Eagle's medium supplemented with 10% fetal bovine serum for up to 10 passages. Plasmid constructs and adenovirus preparation. The HA-tagged LARP6 clone and the deletion mutants have been described previously.^16 Adenoviruses were constructed by recloning of the constructs into the pAdCMVTRACK vector, followed by recombination with the pAdEasy vector and amplification, as described previously.^48 Expression of each construct was verified by Western blot analysis. The viruses made express both the full-size test protein and the green fluorescent protein (GFP), which is encoded by an independent transcription unit.^48 Expression of GFP served as control for viral transduction. RT-PCR analysis Total cellular RNA was isolated using an RNA isolation kit (Sigma). RT-PCRs were performed with 100 ng of total RNA or using rTth reverse transcriptase (Boca Scientific, Boca Raton, Fla.). [^32P]dCTP was included in the PCR step to label the products, which were resolved on sequencing gels, as described previously.^8,31,49,50 When RNA from polysomal fractions was analyzed, an equal aliquot of each fraction was used. The number of cycles was adjusted to within the linear range of the reaction. The primers used for RT-PCR were as follows: h-collagen α1(I), 5′ primer […] (SEQ ID NO:3) and 3′ primer […] (SEQ ID NO:4); h-collagen α2(I), 5′ primer […] (SEQ ID NO:5) and 3′ primer […] (SEQ ID NO:6).
Protein concentration was estimated by the Bradford assay, with bovine serum albumin as standard.^51 Western blot analyses of cellular proteins were performed using 50 μg of protein. For Western blot analysis of secreted proteins, equal numbers of cells were seeded, serum-free medium was added to the cells, and incubation continued for 3 h. The medium was collected, and an aliquot was analyzed directly by Western blot analysis. Use of serum free medium in collecting secreted proteins is essential because fetal calf serum contains substantial amounts of collagen and fibronectin.^15,31 For immunostaining, cells were seeded onto glass coverslips. After treatment, the cells were fixed with 4% paraformaldehyde for 30 min at room temperature and permeabilized with 0.5% Triton X-100 in phosphatebuffered saline (PBS) for 10 min. After the cells had been blocked with 10% goat serum/5% bovine serum albumin in PBS for 1 h at room temperature, they were incubated with primary antibody overnight at 4° C., washed, and visualized with AlexaFluor594-conjugated or Cy-2-conjugated secondary antibodies. The cells were mounted using VECTASHIELD mounting medium containing […], 6-diamidino-2-phenylindole (Vector Laboratories), and images were taken by a Leica TCS SP2 AOBS laser confocal microscope equipped with a Chameleon Ti: Sapphire multiphoton laser. Optical sections were processed with LCSLite software.
To assess the role of nonmuscle myosin in collagen synthesis, we disrupted nonmuscle myosin filaments in two different cell types: primary human lung fibroblasts and primary scleroderma skin fibroblasts. These cells are responsible for lung and skin fibrosis. […]

lung fibroblasts = assay: Apoptosis of primary lung fibroblasts; assay type: cell-based; details: lung fibroblasts after ML-7 treatment; without treatment 2.2%
Description: To assess the role of nonmuscle myosin in collagen synthesis, we disrupted nonmuscle myosin filaments in two different cell types: primary human lung fibroblasts and primary scleroderma skin fibroblasts. These cells are responsible for lung and skin fibrosis. […] To assess the effect of ML-7 on collagen protein synthesis and secretion, we analyzed the levels of collagen α1(I) and α2(I) polypeptides in the intracellularly space and in the medium using Western blot analysis and chain-specific antibodies.^12,15,31-33 ML-7 treatment profoundly affected the secretion of type I collagen, but the effect differed in the two types of primary fibroblasts. […] To assess if the secreted α1(I) polypeptides had been secreted as disulfide-bonded homotrimers, we performed Western blot analysis under nonreducing conditions (FIG. 3d). […] However, since α2(I) polypeptide was absent in the cell medium of ML-7-treated cells, the bands must represent disulfide-bonded collagen α1(I) chains. The α2(I) antibody could not recognize the polypeptide under nonreducing conditions, so we could not directly test its presence in S—S bonded collagen. Since there are reports that ML-7 can cause apoptosis of epithelial cells, we tested if ML-7 caused apoptosis of the primary fibroblasts. […] Therefore, we concluded that increased apoptosis is not responsible for the observed effects of ML-7. […]

myosin IIB = assay: Western blot analysis of total nonmuscle myosin IIB level; assay type: cell-based, human; details: Western blot; ML-7 40 μM 16 h
Experimental: as §1, §2

O=S(=O)(c1cccc2c(I)cccc12)N1CCCNCC1 [ML-7]
myosin IIB immunostaining (filaments) [1]: myosin staining is confined around the nucleus | intracellular level of collagen α1(I) polypeptide [2]: not changed | intracellular level of collagen α2(I) polypeptide [2]: reduced | secretion of collagen α1(I) polypeptide into the medium ([2]; cytochalasin B 20 μM): barely detectable | secretion of collagen α2(I) polypeptide into the medium ([2]; cytochalasin B 20 μM): absent | secretion/expression of fibronectin ([2]; cytochalasin B 20 μM): not affected | percentage of apoptotic cells (lung fibroblasts): 4.2% | total level of myosin IIB (myosin IIB): remained unchanged
